Experiments:
[1] = tested on: MCF-7 (human breast cancer cell line); assay: Cytotoxicity test by MTT assay, MCF-7; assay type: cell-based; conditions: Homo sapiens, MCF7; for cytotoxicity at 30 µM: MCF-7, 30 μM, 48 h, read-out: Cell viability (% inhibition); for IC50: MCF-7, 48 h
Method: (§1) A cytotoxicity test was measured by MTT assay. Each cell line was cultured in a 96-well plate at a density of 1×10^4 cells/well. […] MTT (3-(4,5-dimethylthiazol-2-yl)-2,5-diphenyltetrazolium bromide) solution (5 mg/mL) was added to each well and reacted for 4 hours in an incubator. […] After reacting in an incubator for 30 minutes, the formation of formazan was quantified using a microplate reader at an absorbance of 540 nm. […] At this time, sunitinib was used as a control group. […] The human cancer cell lines used herein are MCF-7 (breast cancer), MDA-MB-231 (breast cancer), HT-29 (colon cancer), DU145 (prostate cancer), U937 (myeloid leukemia), A549 (lung cancer), PANC-1 (pancreatic cancer) and MIA PaCa-2 (pancreatic cancer).

[2] = tested on: PANC-1 (human pancreatic cancer cell line); assay: Cytotoxicity test by MTT assay, PANC-1; assay type: cell-based; conditions: for cytotoxicity at 30 µM: PANC-1, 30 μM, 48 h, read-out: Cell viability (% inhibition)
Method: as §1

[3] = tested on: MDA-MB-231 (breast cancer); assay: Cytotoxicity test by MTT assay, MDA-MB-231; assay type: cell-based, human; conditions: for IC50: Homo sapiens, MBA-MB-231, 48 h
Method: (§2) A cytotoxicity test was measured by MTT assay. Each cell line was cultured in a 96-well plate at a density of 1×10^4 cells/well. After 24 hours, the culture medium containing 1% FBS (fetal bovine serum) was treated and reacted with compounds or solutions of compounds for 48 hours. MTT (3-(4,5-dimethylthiazol-2-yl)-2,5-diphenyltetrazolium bromide) solution (5 mg/mL) was added to each well and reacted for 4 hours in an incubator. […] After reacting in an incubator for 30 minutes, the formation of formazan was quantified using a microplate reader at an absorbance of 540 nm. […] The human cancer cell lines used herein are MCF-7 (breast cancer), MDA-MB-231 (breast cancer), HT-29 (colon cancer), DU145 (prostate cancer), U937 (myeloid leukemia), A549 (lung cancer), PANC-1 (pancreatic cancer) and MIA PaCa-2 (pancreatic cancer).

HT-29 (colon cancer) = assay: Cytotoxicity test by MTT assay, HT-29; assay type: cell-based, human; conditions: for IC50: Homo sapiens, HT-29, 48 h
Method: as §2

U937 (myeloid leukemia) = assay: Cytotoxicity test by MTT assay, U937; assay type: cell-based, human; conditions: for IC50: Homo sapiens, U-937, U937, 48 h
Method: as §2

A549 (lung cancer) = assay: Cytotoxicity test by MTT assay, A549; assay type: cell-based, human; conditions: for IC50: Homo sapiens, A549, 48 h
Method: as §2

[4] = Cytotoxicity test by MTT assay, HEK293 normal cell line; assay type: cell-based; conditions: human, HEK293 cells (normal cell line)
Method: (§3) A cytotoxicity test was measured by MTT assay. Each cell line was cultured in a 96-well plate at a density of 1×10^4 cells/well. After 24 hours, the culture medium containing 1% FBS (fetal bovine serum) was treated and reacted with compounds or solutions of compounds for 48 hours. MTT (3-(4,5-dimethylthiazol-2-yl)-2,5-diphenyltetrazolium bromide) solution (5 mg/mL) was added to each well and reacted for 4 hours in an incubator. […] After reacting in an incubator for 30 minutes, the formation of formazan was quantified using a microplate reader at an absorbance of 540 nm.

[5] = Cytotoxicity test by MTT assay, CHO-K1 normal cell line; assay type: cell-based; conditions: Chinese hamster, CHO-K1 cells (normal cell line)
Method: as §3

DU145 (prostate cancer) = assay: Cytotoxicity test by MTT assay, DU145; assay type: cell-based, human; conditions: DU-145; for IC50: Homo sapiens, DU145, 48 h
Method: as §2

Compound | cytotoxicity at 30 µM [1] [%] | IC50 [1] [µM] | cytotoxicity at 30 µM ([2]; Homo sapiens) [%] | IC50 [3] [µM] | IC50 (HT-29 (colon cancer)) [µM] | IC50 (U937 (myeloid leukemia)) [µM] | IC50 (A549 (lung cancer)) [µM] | IC50 at 48 h [4] [µM] | IC50 at 48 h [5] [µM] | further results
CCOC(=O)c1c(C)[nH]c(/C=C2\C(=O)Nc3nc(C)c(O)c(C)c32)c1C [Compound I-38, (Z)-Ethyl-5-((5-hydroxy-4,6-dimethyl-2-oxo-1H-pyrrolo[2,3-b]pyridin-3(2H)-ylidene)methyl)-2,4-dimethyl-1H-pyrrole-3-carboxylate] | 41.7 | 39.8 | 35.7 | 24.5 | 22.9 | 12.9 | 18.2 | > 90 | 24 | –
Cc1nc2c(c(C)c1O)/C(=C/c1[nH]c(C)c(C(=O)N3CCCC3)c1C)C(=O)N2 [Compound I-44, (Z)-3-((3,5-Dimethyl-4-(pyrrolidine-1-carbonyl)-1H-pyrrol-2-yl)methylene)-5-hydroxy-4,6-dimethyl-1H-pyrrolo[2,3-b]pyridin-2(3H)-one] | 47.7 | 34.7 | 31.8 | 43.6 | 43.4 | 52.5 | 50.1 | > 90 | 58.9 | –
Cc1nc2c(c(C)c1O)/C(=C/c1[nH]c(C)c(C(=O)N3CCCCC3)c1C)C(=O)N2 [Compound I-43, (Z)-3-((3,5-Dimethyl-4-(piperidine-1-carbonyl)-1H-pyrrol-2-yl)methylene)-5-hydroxy-4,6-dimethyl-1H-pyrrolo[2,3-b]pyridin-2(3H)-one] | 50.5 | 26.9 | 38.5 | 14.8 | 16.6 | 9.77 | 12.1 | > 90 | 14.8 | –
COc1cccc(/C=C2\C(=O)Nc3nc(C)c(O)c(C)c32)c1 [Compound I-13, (Z)-5-Hydroxy-3-(3-methoxybenzylidene)-4,6-dimethyl-1H-pyrrolo[2,3-b]pyridin-2(3H)-one] | 29.6 | – | 46.4 | – | – | – | – | – | – | –
Cc1nc2c(c(C)c1O)/C(=C/c1ccc3ccccc3c1)C(=O)N2 [Compound I-20, (Z)-5-Hydroxy-4,6-dimethyl-3-(naphthalen-2-ylmethylene)-1H-pyrrolo[2,3-b]pyridin-2(3H)-one] | 30.5 | – | 28.9 | – | – | – | – | – | – | –
Cc1nc2c(c(C)c1O)/C(=C/c1[nH]c(C)c(C(=O)N3CCN(C)CC3)c1C)C(=O)N2 [Compound I-45, (Z)-3-((3,5-Dimethyl-4-(4-methylpiperazine-1-carbonyl)-1H-pyrrol-2-yl)methylene)-5-hydroxy-4,6-dimethyl-1H-pyrrolo[2,3-b]pyridin-2(3H)-one] | 60.7 | 10.2 | 48.7 | 16.2 | 36.1 | 26.2 | 26.3 | 38 | 23.4 | –
Cc1nc2c(c(C)c1O)/C(=C/c1ccc3ccccc3n1)C(=O)N2 [Compound I-24, (Z)-5-Hydroxy-4,6-dimethyl-3-(quinolin-2-ylmethylene)-1H-pyrrolo[2,3-b]pyridin-2(3H)-one] | – | – | – | 2.81 | 4.57 | 6.67 | 4.2 | 46.8 | – | cytotoxicity compared with the reference drug sunitinib [3]: greater than or equal to that of the reference drug sunitinib; cytotoxicity compared with the reference drug sunitinib (HT-29 (colon cancer); HT-29): greater than or equal to that of the reference drug sunitinib; cytotoxicity compared with the reference drug sunitinib (DU145 (prostate cancer)): greater than or equal to that of the reference drug sunitinib; IC50 (DU145 (prostate cancer)): 1.07 µM; cytotoxicity compared with the reference drug sunitinib (U937 (myeloid leukemia); U937): greater than or equal to that of the reference drug sunitinib; cytotoxicity compared with the reference drug sunitinib (A549 (lung cancer); A-549): greater than or equal to that of the reference drug sunitinib
Cc1cc(C)c(/C=C2\C(=O)Nc3nc(C)c(O)c(C)c32)[nH]1 [Compound I-36, (Z)-3-((3,5-Dimethyl-1H-pyrrol-2-yl)methylene)-5-hydroxy-4,6-dimethyl-1H-pyrrolo[2,3-b]pyridin-2(3H)-one] | 47.3 | 31.6 | 44.7 | 10.2 | 16.6 | 33.9 | 13.9 | > 90 | 50.1 | –
Cc1nc2c(c(C)c1O)/C(=C/c1[nH]c(C)c(C(=O)N3CCOCC3)c1C)C(=O)N2 [Compound I-46, (Z)-3-((3,5-Dimethyl-4-(morpholine-4-carbonyl)-1H-pyrrol-2-yl)methylene)-5-hydroxy-4,6-dimethyl-1H-pyrrolo[2,3-b]pyridin-2(3H)-one] | 71.2 | 12.6 | 71.1 | 14.5 | 57.5 | – | 30.1 | > 90 | > 90 | IC50 ([2]; Homo sapiens, PANC-1, 48 h): 11.5 µM; cytotoxicity compared with the reference drug sunitinib ([2]; PANC-1): greater than or equal to that of the reference drug sunitinib; IC50 (DU145 (prostate cancer)): 22.9 µM
Cc1nc2c(c(C)c1O)/C(=C/c1ccc(Cl)cc1)C(=O)N2 [Compound I-10, (Z)-3-(4-Chlorobenzylidene)-5-hydroxy-4,6-dimethyl-1H-pyrrolo[2,3-b]pyridin-2(3H)-one] | 51.7 | – | 44.9 | – | – | – | – | – | – | –
Cc1nc2c(c(C)c1O)/C(=C/c1ccco1)C(=O)N2 [Compound I-27, (Z)-3-(Furan-2-ylmethylene)-5-hydroxy-4,6-dimethyl-1H-pyrrolo[2,3-b]pyridin-2(3H)-one] | 31.5 | – | 16.4 | – | – | – | – | – | – | –
COc1ccc(/C=C2\C(=O)Nc3nc(C)c(O)c(C)c32)cc1 [Compound I-14, (Z)-5-Hydroxy-3-(4-methoxybenzylidene)-4,6-dimethyl-1H-pyrrolo[2,3-b]pyridin-2(3H)-one] | 23.9 | – | 36.3 | – | – | – | – | – | – | –
COc1cccc2c1C(=O)c1c(O)c3c(c(O)c1C2=O)C[C@@](O)(C(=O)CO)C[C@@H]3O[C@H]1C[C@H](N)[C@H](O)[C@H](C)O1 [Doxorubicin, reference compound] | – | – | – | – | – | – | – | 0.32 | 12.1 | –
COc1cc(/C=C/C=C2\C(=O)Nc3nc(C)c(O)c(C)c32)ccc1O [Compound I-04, (Z)-5-Hydroxy-3-((E)-3-(4-hydroxy-3-methoxyphenyl)allylidene)-4,6-dimethyl-1H-pyrrolo[2,3-b]pyridin-2(3H)-one] | 6.9 | – | 24.4 | – | – | – | – | – | – | –
Cc1nc2c(c(C)c1O)/C(=C/c1ccc([N+](=O)[O-])cc1)C(=O)N2 [Compound I-08, (Z)-5-Hydroxy-4,6-dimethyl-3-(4-nitrobenzylidene)-1H-pyrrolo[2,3-b]pyridin-2(3H)-one] | 16.3 | – | 32.5 | – | – | – | – | – | – | –
Cc1nc2c(c(C)c1O)/C(=C/c1c[nH]c3ccccc13)C(=O)N2 [Compound I-26, (Z)-3-((1H-Indol-3-yl)methylene)-5-hydroxy-4,6-dimethyl-1H-pyrrolo[2,3-b]pyridin-2(3H)-one] | 2.4 | – | 17.1 | – | – | – | – | – | – | –
Cc1nc2c(c(C)c1O)/C(=C/c1nccs1)C(=O)N2 [Compound I-35, (Z)-5-Hydroxy-4,6-dimethyl-3-(thiazol-2-ylmethylene)-1H-pyrrolo[2,3-b]pyridin-2(3H)-one] | 5.6 | – | 9 | – | – | – | – | – | – | –
Cc1nc2c(c(C)c1O)/C(=C/c1cccc3[nH]ccc13)C(=O)N2 [Compound I-25, (Z)-3-((1H-Indol-4-yl)methylene)-5-hydroxy-4,6-dimethyl-1H-pyrrolo[2,3-b]pyridin-2(3H)-one] | 14.5 | – | 32.3 | – | – | – | – | – | – | –

From US10544140B2, “Pharmaceutical composition containing, as active ingredient, 7-azaindolin-2-one derivative or pharmaceutically acceptable salt thereof” (LG CHEM, LTD., priority 2015, dated 2020)
